Measurements reported in patent US8642011B2 (priority 2006, dated 2014).
Converted amounts (≈) assume the structure as drawn.

Tests used:
Assay in all cases: microbe, parasite or virus in culture
Settings in all cases: Mycobacterium tuberculosis, read-out: minimum inhibitory concentration (MIC)
SO2 strain = format: cell-based, M. tuberculosis
[1] = test system: M. tuberculosis strains H37Rv; format: cell-based
MT103 (wild type) = format: cell-based, M. tuberculosis

[H]/N=C(/N)N[C@H]1[C@H](O)[C@@H](O)[C@H](O[C@@H]2O[C@@H](C)[C@](O)(C=O)[C@H]2O[C@@H]2O[C@@H](CO)[C@H](O)[C@@H](O)[C@@H]2NC)[C@@H](N/C(N)=N\[H])[C@@H]1O [Streptomycin]
MIC (SO2 strain): < 0.5 µg/mL
MIC [1]: < 0.5 µg/mL
MIC (MT103 (wild type)): < 0.5 µg/mL

CO[C@H]1/C=C/O[C@@]2(C)Oc3c(C)c(O)c4c(O)c(c(/C=N/N5CCN(C)CC5)c(O)c4c3C2=O)NC(=O)/C(C)=C\C=C\[C@H](C)[C@H](O)[C@@H](C)[C@@H](O)[C@@H](C)[C@H](OC(C)=O)[C@@H]1C [Rifampicin]
MIC (SO2 strain): < 0.004 µg/mL
MIC [1]: < 0.004 µg/mL
MIC (MT103 (wild type)): < 0.004 µg/mL

CC[C@@H](CO)NCCN[C@@H](CC)CO [Ethambutol]
MIC (SO2 strain): 2 µg/mL (≈ 9.79 µM)
MIC [1]: 2 µg/mL (≈ 9.79 µM)
MIC (MT103 (wild type)): 2 µg/mL (≈ 9.79 µM)

NNC(=O)c1ccncc1 [Isoniazid]
MIC (SO2 strain): 0.25 µg/mL (≈ 1.82 µM)
MIC [1]: 0.5 µg/mL (≈ 3.65 µM)
MIC (MT103 (wild type)): 0.5 µg/mL (≈ 3.65 µM)
